Key:
Conditions in all cases: stereoisomer not certain
[1] = RP, Merck Supelco Ascentis Express C18, 100 × 2.1 mm, 2 µm, 40 °C, 0.2 mL/min, estimated dead time 1.1 min; A: water + 0.1% formic acid, pH 3; B: acetonitrile + 0.1% formic acid, pH 3; gradient (min/%B) 0/5 2/5 17/99.9 20/99.9
[2] = as above; remark: listed apart in the source
[3] = RP, Merck Supelco Ascentis Express C18, 100 × 2.1 mm, 2 µm, 40 °C, 0.4 mL/min, estimated dead time 0.55 min; A: water + 0.1% formic acid, pH 3; B: acetonitrile + 0.1% formic acid, pH 3; gradient (min/%B) 0/5 2/5 17/99.9 20/99.9
[4] = as above; remark: listed apart in the source
[5] = RP, Merck Supelco Ascentis Express C18, 100 × 2.1 mm, 2 µm, 39 °C, 0.3 mL/min, estimated dead time 0.73 min; A: water + 0.1% formic acid, pH 3; B: acetonitrile + 0.1% formic acid, pH 3; gradient (min/%B) 0/5 2/5 17/99.9 20/99.9
[6] = RP, Merck Supelco Ascentis Express C18, 100 × 2.1 mm, 2 µm, 40 °C, 0.25 mL/min, estimated dead time 0.88 min; A: water + 0.1% formic acid, pH 3; B: acetonitrile + 0.1% formic acid, pH 3; gradient (min/%B) 0/5 2/5 17/99.9 20/99.9
[7] = RP, Merck Supelco Ascentis Express C18, 100 × 2.1 mm, 2 µm, 40 °C, 0.35 mL/min, estimated dead time 0.63 min; A: water + 0.1% formic acid, pH 3; B: acetonitrile + 0.1% formic acid, pH 3; gradient (min/%B) 0/5 2/5 17/99.9 20/99.9

| Compound | LC retention time [1] [min] | LC retention time [2] [min] | LC retention time [3] [min] | LC retention time [4] [min] | LC retention time [5] [min] | LC retention time [6] [min] | LC retention time [7] [min] |
| --- | --- | --- | --- | --- | --- | --- | --- |
| O=C(C=Cc1ccc(O)c(O)c1)OC(Cc1ccc(O)c(O)c1)C(=O)O (stereo not drawn) [ROSMARINATE] | 6.9 | 6.88 | 5.62 | 5.6 | 6.1 | 6.41 | 5.82 |
| O=c1[nH]c(=O)c2ncn(C3OC(CO)C(O)C3O)c2[nH]1 (stereo not drawn) [XANTHOSINE] | 1.62 | 1.65 | 0.81 | 0.81 | 1.05 | 1.29 | 0.923 |
| CCCCCCCCCCCCCC(=O)OCC(O)CO (stereo not drawn) [GLYCEROL-MYRISTATE] | 15.4 | 15.3 | 13.3 | 13.2 | 14 | 14.6 | 13.6 |
| CCC(C(=O)O)C(=O)O [ETHYLMALONATE] | 3.01 | 3.05 | 1.48 | 1.48 | 2.06 | 2.31 | 1.72 |
| O=C(O)CCCCCCCCCCCO [OMEGA-HYDROXYDODECANOATE] | 9.68 | 9.68 | 8.17 | 8.13 | 8.71 | 9.11 | 8.4 |
| CC(=O)NC(Cc1c[nH]c2ccccc12)C(=O)O (stereo not drawn) [N-ACETYLTRYPTOPHAN] | 6.55 | 6.55 | 5.1 | 5.08 | 5.64 | 6.02 | 5.32 |
| CCCCC(N)C(=O)O (stereo not drawn) [NORLEUCINE] | 1.62 | 1.63 | 0.8 | 0.79 | 1.05 | 1.3 | 0.91 |

Continued, values first:

| LC retention time [1] [min] | LC retention time [2] [min] | LC retention time [3] [min] | LC retention time [4] [min] | LC retention time [5] [min] | LC retention time [6] [min] | LC retention time [7] [min] | Compound |
| --- | --- | --- | --- | --- | --- | --- | --- |
| 11.1 | 11 | 9.6 | 9.62 | 10.2 | 10.5 | 9.86 | CC(CCC(=O)NCCS(=O)(=O)O)C1CCC2C3CCC4CC(O)CCC4(C)C3CCC12C (stereo not drawn) [LITHOCHOLYLTAURINE] |
| 4.85 | 4.83 | 2.95 | 2.88 | 3.67 | 4.19 | 3.27 | O=C(O)C(O)c1ccccc1 (stereo not drawn) [MANDELATE] |
| 4.78 | 4.79 | 3.19 | 3.17 | 3.83 | 4.23 | 3.47 | O=C(O)Cc1c[nH]c2ccc(O)cc12 [5-HYDROXYINDOLEACETATE] |
| 6.93 | 6.91 | 5.54 | 5.5 | 6.03 | 6.4 | 5.74 | Cc1cc2nc3[nH]c(=O)[nH]c(=O)c3nc2cc1C [LUMICHROME] |
| 1.41 | 1.41 | 0.7 | 0.687 | 0.967 | 1.13 | 0.783 | O=c1[nH]c(=O)c2nccnc2[nH]1 [2,4-DIHYDROXYPTERIDINE] |
| 3.75 | 3.75 | 1.9 | 1.86 | 2.49 | 3 | 2.15 | CSCCC(O)C(=O)O (stereo not drawn) [2-HYDROXY-4-(METHYLTHIO)BUTANOATE] |
| 5.89 | 5.9 | 4.39 | 4.36 | 4.93 | 5.35 | 4.63 | CC(=O)NC(CC(C)C)C(=O)O (stereo not drawn) [N-ACETYLLEUCINE] |
